ChEMBL document CHEMBL1201862, “PubChem BioAssay data set” (2004)
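These data come from cells grown in 96-well plates and exposed to compound for 48 hours at five concentrations. GI50 = concentration required for 50% inhibition of growth.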 Calls of active or inactive are those of the source. Cut-off read from the data, not from the text of the source: active = GI50 up to about 1.1 µM and inactive = higher.

Key:
Assay in all cases: growth of human tumour cells (NCI), 48 h
786-0 = system: 786-0
A498 = system: A498
A549 = system: A549
ACHN = system: ACHN
BT-549 = system: BT-549
CAKI-1 = system: CAKI-1
CCRF-CEM = system: CCRF-CEM
COLO 205 = system: COLO 205
DU-145 = system: DU-145
EKVX = system: EKVX
HCC 2998 = system: HCC 2998
HCT-116 = system: HCT-116
HCT-15 = system: HCT-15
HL-60 = system: HL-60
HOP-62 = system: HOP-62
HOP-92 = system: HOP-92
HT-29 = system: HT-29
Hs-578T = system: Hs-578T
IGROV-1 = system: IGROV-1
K562 = system: K562
KM12 = system: KM12
LOX IMVI = system: LOX IMVI
M14 = system: M14
MCF7 = system: MCF7
MDA-MB-231 = system: MDA-MB-231
MDA-MB-435 = system: MDA-MB-435
MDA-N = system: MDA-N
MOLT-4 = system: MOLT-4
Malme-3M = system: Malme-3M
NCI-H226 = system: NCI-H226
NCI-H23 = system: NCI-H23
NCI-H460 = system: NCI-H460
NCI-H522 = system: NCI-H522
NCI/ADR-RES = system: NCI/ADR-RES
OVCAR-3 = system: OVCAR-3
OVCAR-4 = system: OVCAR-4
OVCAR-5 = system: OVCAR-5
OVCAR-8 = system: OVCAR-8
PC-3 = system: PC-3
RPMI-8226 = system: RPMI-8226
RXF 393 = system: RXF 393
SF-268 = system: SF-268
SF-295 = system: SF-295
SF-539 = system: SF-539
SK-MEL-28 = system: SK-MEL-28
SK-MEL-2 = system: SK-MEL-2
SK-MEL-5 = system: SK-MEL-5
SK-OV-3 = system: SK-OV-3
SN12C = system: SN12C
SNB-19 = system: SNB-19
SNB-75 = system: SNB-75
SR = system: SR
SW-620 = system: SW-620
T47D = system: T47D
TK-10 = system: TK-10
U-251 = system: U-251
UACC-257 = system: UACC-257
UACC-62 = system: UACC-62
UO-31 = system: UO-31

C=CC(=O)N1C/C(=C\c2ccc(Cl)cc2)C(=O)/C(=C/c2ccc(Cl)cc2)C1
GI50 (786-0): 210 nM (active)
GI50 (A498): 494 nM (active)
GI50 (A549): 356 nM (active)
GI50 (ACHN): 286 nM (active)
GI50 (BT-549): 329 nM (active)
GI50 (CAKI-1): 343 nM (active)
GI50 (CCRF-CEM): 175 nM (active)
GI50 (COLO 205): 390 nM (active)
GI50 (DU-145): 813 nM (active)
GI50 (EKVX): 885 nM (active)
GI50 (HCC 2998): 296 nM (active)
GI50 (HCT-116): 92.3 nM (active)
GI50 (HCT-15): 182 nM
GI50 (HL-60): 484 nM (active)
GI50 (HOP-62): 317 nM (active)
GI50 (HOP-92): 1540 nM (inactive)
GI50 (HT-29): 98.9 nM (active)
GI50 (Hs-578T): 321 nM (active)
GI50 (IGROV-1): 353 nM (active)
GI50 (K562): 265 nM (active)
GI50 (KM12): 234 nM (active)
GI50 (LOX IMVI): 124 nM (active)
GI50 (M14): 255 nM (active)
GI50 (MCF7): 151 nM (active)
GI50 (MDA-MB-231): 255 nM (active)
GI50 (MDA-MB-435): 262 nM (active)
GI50 (MDA-N): 214 nM (active)
GI50 (MOLT-4): 300 nM (active)
GI50 (Malme-3M): 973 nM (active)
GI50 (NCI-H226): 237 nM (active)
GI50 (NCI-H23): 492 nM (active)
GI50 (NCI-H460): 468 nM (active)
GI50 (NCI-H522): 514 nM (active)
GI50 (NCI/ADR-RES): 436 nM (active)
GI50 (OVCAR-3): 310 nM (active)
GI50 (OVCAR-4): 286 nM (active)
GI50 (OVCAR-5): 641 nM (active)
GI50 (OVCAR-8): 322 nM (active)
GI50 (PC-3): 255 nM (active)
GI50 (RPMI-8226): 26.3 nM (active)
GI50 (RXF 393): 275 nM (active)
GI50 (SF-268): 221 nM (active)
GI50 (SF-295): 288 nM (active)
GI50 (SF-539): 188 nM (active)
GI50 (SK-MEL-28): 442 nM (active)
GI50 (SK-MEL-2): 1320 nM (inactive)
GI50 (SK-MEL-5): 1360 nM (inactive)
GI50 (SK-OV-3): 656 nM (active)
GI50 (SN12C): 313 nM (active)
GI50 (SNB-19): 1000 nM (active)
GI50 (SNB-75): 405 nM (active)
GI50 (SR): 50 nM (active)
GI50 (SW-620): 150 nM (active)
GI50 (T47D): 2000 nM (inactive)
GI50 (TK-10): 1390 nM (inactive)
GI50 (U-251): 173 nM (active)
GI50 (UACC-257): 1190 nM (inactive)
GI50 (UACC-62): 294 nM (active)
GI50 (UO-31): 335 nM (active)
